Series [1] in a line: Solubility under the Mur ligase assay conditions. The format is physicochemical.
Another series has as its target E. coli MurE (Escherichia coli, UniProt P22188). Nature of the series: MurE inhibition assay (Malachite green). The format is biochemical. The note with it: for remaining activity at 100 µM: 0.25 h, residual activity at 100 µM compound, mean ± SD of three independent experiments, read-out: RA (%) @ 100 µM MurE. As to the method:
(§1) Inhibition of the Mur ligases was determined using the Malachite green assay, with slight modifications. […] In all cases, the final concentration of DMSO was 5% (v/v).
(§2) After incubation for 15 min at 37 °C, the enzyme reaction was terminated by the addition of 100 µM Biomol green reagent®, and the absorbance was measured at 650 nm after 5 min. Experiments to determine the RA run in triplicate. Residual activities were calculated with respect to control assays without the tested compounds, but with the 5% DMSO carrier. The IC50 values were determined by measuring the residual activities at seven different compound concentrations, and they represent the concentration of the compound at which the residual activity was 50%. IC50 values were obtained by plotting the residual enzyme activities against the applied inhibitor concentrations, fitting the experimental data to the 4-parameter Hill equation: Y=Bottom-Top-Bottom/1+10^logIC50-X×HillSlope , where X is the logarithm of the inhibitor concentration, and Y is the residual activity. The IC50 values were determined in three independent experiments. GraphPad Prism 8.2.0 (GraphPad Software, San Diego, CA, USA) was used for the fitting procedure.
(§3) The assay detects the phosphate formed in each enzyme reaction. To avoid any possibility of the compounds inhibiting the enzymes due to aggregation, a detergent (0.005% Triton-X114) was added to the test system.

The next series addresses E. coli MurD (Escherichia coli, UniProt P14900). The series can be described thus: MurD inhibition assay (Malachite green). The format is biochemical. The note with it: 0.25 h; residual activity at 100 µM compound; mean ± SD of three independent experiments; read-out: RA (%) @ 100 µM MurD. As to the method:
as §1, §2, §3

In another series the target is E. coli MurF (Escherichia coli, UniProt P11880). Nature of the series: MurF inhibition assay (Malachite green). The format is biochemical. The note with it: for IC50: seven compound concentrations, 4-parameter Hill fit, three independent experiments; for remaining activity at 100 µM: 0.25 h, residual activity at 100 µM compound, mean ± SD of three independent experiments, read-out: RA (%) @ 100 µM MurF. The protocol:
as §1, §2, §3

The next series relates to S. aureus (ATCC 29,213). The series can be described thus: Antibacterial assay, broth microdilution MIC. The format is cell-based. The note with it: for MIC: Staphylococcus aureus, read-out: MIC S.aureus. As to the method: (§4) Antimicrobial testing was performed by the broth microdilution method in 96-well plates following the Clinical and Laboratory Standards Institute guidelines and European Committee on Antimicrobial Susceptibility Testing recommendations (Clinical and Laboratory Standards Institute). Bacterial suspensions equivalent to 0.5 McFarland turbidity standard were diluted with cation-adjusted Mueller–Hinton broth with TES buffering (ThermoFisher Scientific), for a final inoculum of 10^5 CFU/ mL. Compounds dissolved in DMSO and the inoculum were mixed and incubated for 20 h at 35 °C. […] The MICs were determined against two reference bacterial strains, S. aureus (ATCC 29,213) and E. coli (ATCC 25,922). Tetracycline was used as the positive control on every assay plate, with MICs of 0.5 and 1 µg/mL for S. aureus and E. coli, respectively. All MICs were determined in three independent experiments.

Another series deals with E. coli (ATCC 25,922). The series can be described thus: Antibacterial assay, broth microdilution MIC. In kind it is cell-based. The note with it: for MIC: Escherichia coli, read-out: MIC E.coli. As to the method:
as §4
Background: Broth dilution looks for growth in wells or tubes with falling amounts of substance.

A further series addresses E. coli MurC (Escherichia coli, UniProt P17952). The series can be described thus: MurC inhibition assay (Malachite green). In kind it is biochemical. The note with it: 0.25 h; residual activity at 100 µM compound; mean ± SD of three independent experiments; read-out: RA (%) @ 100 µM MurC. The protocol:
as §1, §2, §3

A further series deals with MurF from E. coli (Escherichia coli, UniProt P11880). The series can be described thus: Steady-state kinetic analysis of compound 21. The format is biochemical. The protocol:
For compound 21, Ki values were determined against MurF from E. coli. Ki determinations were performed under similar conditions to those described for the inhibition assay, where the different concentrations of one substrate and a fixed concentration of the other two were used. First, the concentration of UM3DAP was varied (25, 50, 100, 200 µM) at fixed ATP (500 µM) and D-Ala-D-Ala (600 µM)), then the concentration of D-Ala-D-Ala was varied (50, 100, 200, 400, 600 µM) at fixed ATP (500 µM) and UM3DAP (100 µM), and finally, the concentration of ATP was varied (50, 100, 350, 500 µM) at fixed UM3DAP (100 µM) and D-Ala-D-Ala (600 µM). The concentrations of 21 were 0, 25, 50, 75, 100, 200, 350 and 500 µM and the concentration of the MurF was 20 nM. After a 15 min incubation, 100 µM Biomol green reagent® was added, and the absorbance was read at 650 nm after 5 min. All experiments were run in triplicate.
The data were analysed using the SigmaPlot 12.0 software. The initial velocities were fitted to competitive, non-competitive, uncompetitive and mixed enzyme inhibition. The Ki and mode of inhibition from the best ranking model were used, as provided by the software.

Where [2] appears, read: ATCC29, broth microdilution, 20 h at 35 °C.
The mark [3] stands for this setting: ATCC25, broth microdilution, 20 h at 35 °C.

Entries after “also recorded” stand apart in the source; their conditions may differ. Where two headings read alike, the source gives them in different places.

E. coli MurF, sequence (P11880 whole entry): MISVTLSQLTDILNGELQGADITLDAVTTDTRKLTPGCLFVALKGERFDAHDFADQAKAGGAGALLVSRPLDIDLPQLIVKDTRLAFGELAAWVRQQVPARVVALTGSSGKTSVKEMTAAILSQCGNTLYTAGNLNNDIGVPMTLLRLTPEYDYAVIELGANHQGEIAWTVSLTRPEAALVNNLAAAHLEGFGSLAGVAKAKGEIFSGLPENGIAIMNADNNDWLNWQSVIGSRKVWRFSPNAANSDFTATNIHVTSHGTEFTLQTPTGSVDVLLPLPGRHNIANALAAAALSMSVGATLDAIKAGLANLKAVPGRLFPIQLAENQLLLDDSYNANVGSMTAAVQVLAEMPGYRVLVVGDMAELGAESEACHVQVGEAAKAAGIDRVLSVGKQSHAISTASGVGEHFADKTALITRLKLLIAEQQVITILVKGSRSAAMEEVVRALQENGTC
MurF from E. coli, sequence (P11880 whole entry): as above
E. coli MurD, sequence (P14900 whole entry): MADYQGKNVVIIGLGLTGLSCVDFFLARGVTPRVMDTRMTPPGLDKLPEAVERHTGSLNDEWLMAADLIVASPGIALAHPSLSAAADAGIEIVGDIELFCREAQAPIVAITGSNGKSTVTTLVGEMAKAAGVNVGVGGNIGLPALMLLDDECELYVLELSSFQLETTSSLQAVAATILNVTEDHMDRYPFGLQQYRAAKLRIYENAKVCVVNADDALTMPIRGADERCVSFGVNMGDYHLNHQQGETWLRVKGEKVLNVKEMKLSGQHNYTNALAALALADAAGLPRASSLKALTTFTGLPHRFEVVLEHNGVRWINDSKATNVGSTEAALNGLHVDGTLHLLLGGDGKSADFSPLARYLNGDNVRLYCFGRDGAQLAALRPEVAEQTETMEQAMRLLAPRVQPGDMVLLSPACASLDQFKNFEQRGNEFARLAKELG
E. coli MurC, sequence (P17952 whole entry): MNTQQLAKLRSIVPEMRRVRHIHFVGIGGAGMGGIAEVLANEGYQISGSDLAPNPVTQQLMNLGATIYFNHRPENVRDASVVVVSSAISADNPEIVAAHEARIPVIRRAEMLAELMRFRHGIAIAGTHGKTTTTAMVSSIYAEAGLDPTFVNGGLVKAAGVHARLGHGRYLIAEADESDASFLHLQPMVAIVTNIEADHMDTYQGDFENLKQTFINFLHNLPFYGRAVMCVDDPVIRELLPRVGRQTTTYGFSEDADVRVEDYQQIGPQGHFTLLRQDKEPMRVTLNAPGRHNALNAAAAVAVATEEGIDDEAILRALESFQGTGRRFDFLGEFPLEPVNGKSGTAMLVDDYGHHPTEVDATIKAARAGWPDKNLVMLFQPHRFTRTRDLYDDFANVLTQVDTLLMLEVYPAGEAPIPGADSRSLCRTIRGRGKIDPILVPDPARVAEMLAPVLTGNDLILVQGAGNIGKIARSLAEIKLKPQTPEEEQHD
E. coli MurE, sequence (P22188 whole entry): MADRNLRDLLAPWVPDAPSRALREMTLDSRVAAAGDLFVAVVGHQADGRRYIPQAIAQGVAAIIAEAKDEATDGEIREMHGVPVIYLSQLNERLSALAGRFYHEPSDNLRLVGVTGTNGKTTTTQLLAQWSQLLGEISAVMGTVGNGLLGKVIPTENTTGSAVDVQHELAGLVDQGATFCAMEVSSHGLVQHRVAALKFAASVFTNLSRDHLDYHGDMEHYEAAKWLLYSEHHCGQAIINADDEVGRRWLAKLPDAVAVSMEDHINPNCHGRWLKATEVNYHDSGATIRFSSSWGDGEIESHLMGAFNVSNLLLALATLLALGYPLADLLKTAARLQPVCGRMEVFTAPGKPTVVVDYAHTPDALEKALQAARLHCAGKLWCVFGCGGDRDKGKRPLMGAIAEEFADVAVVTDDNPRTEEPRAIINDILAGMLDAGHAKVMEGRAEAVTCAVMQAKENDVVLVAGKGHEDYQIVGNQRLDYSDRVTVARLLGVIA

On to `Oc1cc(O)c2c(c1)O[C@H](c1ccc(O)c(O)c1)[C@@H](O)[C@H]2O` [Compound 20, Leucocyanidin], for which the “Solubility under the assay conditions (in words)” value in series [1] is recorded as “poor solubility”. Further, the IC50 was determined as 164 ± 14 µM at E. coli MurE (seven compound concentrations, 4-parameter Hill fit, three independent experiments) and 28 ± 8 µM against E. coli MurF. Besides, the remaining activity at 100 µM came to 91 ± 9% on E. coli MurD and 95 ± 8% on E. coli MurC. Also, the MIC in the series on S. aureus (ATCC 29,213) (setting [2]) and in the series with E. coli (ATCC 25,922) (setting [3]) was more than 250 µM each time.

Consider `C[C@@H]1O[C@@H](Oc2c(-c3ccc(O)c(O)c3)oc3cc(O)cc(O)c3c2=O)[C@H](O)[C@H](O)[C@H]1O` [Compound 10, quercitrin], for which the remaining activity at 100 µM came to 98 ± 9% at E. coli MurE, 77 ± 9% on E. coli MurD and 98 ± 10% on E. coli MurC. This compound also registered an IC50 against E. coli MurF of 143 ± 18 µM. The MIC is more than 250 µM in the series with S. aureus (ATCC 29,213) (ATCC29, 20 h) and more than 250 µM in the series on E. coli (ATCC 25,922) (ATCC25, 20 h). Also, the “Inhibition of growth of S. aureus (in words)” value in the series on S. aureus (ATCC 29,213) (broth microdilution) was “inactive”. Moreover, in the series on E. coli (ATCC 25,922) (broth microdilution), the “Inhibition of growth of E. coli (in words)” value was “inactive”.

In the case of `Oc1cc(O)c2c(c1)O[C@H](c1ccc(O)c(O)c1)[C@H](O)C2` [Compound 21, (–)-epicatechin], the remaining activity at 100 µM on E. coli MurE turned out to be 79 ± 8%; at E. coli MurD, 94 ± 9%; at E. coli MurC, 92 ± 8%. On E. coli MurF, this compound yielded an IC50 of 92 ± 13 µM. The minimum inhibitory concentration (MIC) in the series with S. aureus (ATCC 29,213) (setting [2]) and with E. coli (ATCC 25,922) (setting [3]) was more than 250 µM each time. Moreover, the “Inhibition of growth of S. aureus (in words)” value with S. aureus (ATCC 29,213) (broth microdilution) was “inactive”. Besides, in the series on E. coli (ATCC 25,922) (broth microdilution), the “Inhibition of growth of E. coli (in words)” value was “inactive”. Also, the Ki on MurF from E. coli (substrate ATP varied, UM3DAP 100 µM, D-Ala-D-Ala 600 µM fixed) amounted to 28.5 ± 2.7 µM; at MurF from E. coli (substrate D-Ala-D-Ala varied, ATP 500 µM, UM3DAP 100 µM fixed), 58.2 ± 5.1 µM; on MurF from E. coli (substrate UM3DAP varied, ATP 500 µM, D-Ala-D-Ala 600 µM fixed), 70.1 ± 4 µM. Also, the Mechanism of inhibition result on MurF from E. coli (with respect to ATP) is given as “mixed inhibition; also recorded: mixed inhibitor; also recorded: Mixed (partial)”; on MurF from E. coli (with respect to ATP, listed as (–)-epicatechin), “mixed type inhibition”; at MurF from E. coli (with respect to D-Ala-D-Ala) it was “uncompetitive inhibitor; also recorded: Uncompetitive (partial)”; at MurF from E. coli (with respect to D-Ala-D-Ala, listed as (–)-epicatechin) it was “uncompetitive inhibition”; on MurF from E. coli (with respect to UM3DAP), “uncompetitive inhibitor; also recorded: Uncompetitive (partial)”; on MurF from E. coli (with respect to UM3DAP, listed as (–)-epicatechin), “uncompetitive inhibition”. Further, the “α (mixed partial inhibition model)” value on MurF from E. coli (with respect to ATP) was 1.5. Also, the “β (mixed partial inhibition model)” value on MurF from E. coli (with respect to ATP) worked out at 0.4545.

Take `COc1cc([C@@H]2[C@H]3CO[C@@]4(O)C(=O)[C@@H]2C=C([C@H]2Oc5cc(O)cc(O)c5C(=O)[C@@H]2O)[C@@H]34)ccc1O` [Compound 24, silydianin]: the remaining activity at 100 µM at E. coli MurE is 93 ± 9%; on E. coli MurD, 95 ± 9%; at E. coli MurF, 99 ± 7%; at E. coli MurC, 100 ± 7%. The MIC in the series with S. aureus (ATCC 29,213) (setting [2]) and in the series on E. coli (ATCC 25,922) (setting [3]) was more than 250 µM in each case.

Turning to `COc1ccc([C@@H]2CC(=O)c3c(O)cc(O)cc3O2)cc1O` [Compound 1], the remaining activity at 100 µM amounted to 100 ± 10% at E. coli MurE, 94 ± 9% on E. coli MurD, 87 ± 8% on E. coli MurF and 100 ± 9% at E. coli MurC. For the same compound, the minimal inhibitory concentration (MIC) with S. aureus (ATCC 29,213) (setting [2]) and in the series with E. coli (ATCC 25,922) (setting [3]) was more than 250 µM each time.

Broadly, the IC50 is the point on the concentration scale where inhibition reaches its midpoint. A higher IC50 goes with weaker potency. The term MIC denotes the smallest concentration in the dilution series that meets the test's criterion for growth inhibition. A word on the Ki: it is a measure of affinity in units of concentration, obtained from inhibition or displacement.
